Values joined by “and” are separate entries in the source; they are usually repeats but may differ in a detail not shown here. Equal entries are not always repeated.
Assays:
[1] = Stability of 6 compounds of SI in rat plasma; conditions: for 10h in auto-sampler vials RE: extracted rat plasma; for 6h at room temperature RE / Freeze-thaw stability (three cycles) RE / Long-term stability (-80℃,15 days) RE: rat plasma
Excerpt: The LC-MS method was validated by linearity, limits of detection (LOD), limits of quantification (LOQ), precision, accuracy, extraction recovery, matrix effect and stability of the 6 ingredients in rat plasma. Calibration curves were plotted using weighted linear regression of the peak area ratio of analyte to the IS against the corresponding nominal concentration of the analyte. LOD and LOQ were defined as the detectable concentration at which the ratio of signal to noise was more than 3 and 10, respectively. Intra- and inter-day accuracy and precision were assessed by detecting quality control (QC) samples using five replicates of rat samples at three concentration levels on one or three validation days, respectively. Accuracy and precision were expressed by relative error (RE) and relative standard deviation (RSD), respectively. The extraction recovery and matrix effect of the 6 components at above-mentioned three concentration levels were determined. Stability was assessed under the condition of placing un-treated plasma samples at room temperature for 6 h, and extracted plasma samples in auto-sampler for 10 h, as well as placing plasma samples within freeze-thaw three cycles and at −80 °C for 15 days.

[2] = Stability in diluted SI at room temperature; conditions: analyzed at 0, 2, 4, 8, 12, 24, and 48 h
[3] = Multicomponent pharmacokinetics in rat plasma after i.v. safflower injection (SI); conditions: for AUC(0-inf) / AUC(0-t) / Cmax / MRT inf / MRT last / Vd / clearance / half-life: male, Sprague-Dawley, rat, plasma, iv
Method: The animal experiments were approved by the Animal Care and Use Committee of the College of Animal Science (College of Bee Science), Fujian Agriculture and Forestry University (Approval Number: PZCASFAFU21012). 250 ± 20 g of male Sprague-Dawley (SD) rats were provided by Lab Animal Center in Fujian Medical University (Fuzhou, China).
Ten rats were divided into three groups (Low dose group, n = 4; medium and high groups, n = 3, respectively). […] For each rat, 2 ml of physiological saline was supplemented after 30 min sampling via intraperitoneal injection. The plasma samples were obtained by centrifugation at 3,000 rpm for 10 min and stored at −20°C until analysis.
Clear supernatant (5 μl) was injected into HPLC-MS for bioanalysis.
The sample was separated on a RD-C18 column (4.6 mm × 50 mm, 3.5 μm, Zhongpu Develop, China). The mobile phase incudes water with 0.1% acetic acid (A) and acetonitrile (B). […] The column temperature, flow rate and injection volume were set at 30°C, 0.5 ml/min and 5 μl, respectively.
Non-compartmental model was used to calculate the PK parameters by DAS 3.0 software (Chinese Pharmacologic Society, Beijing, China). A single-tailed t-test was carried out in the study.

[4] = test system: H9c2 cardiomyocytes injured by H2O2; assay: Protection of cardiomyocytes injured by H2O2 (MTT); assay type: cell-based; conditions: preliminary test at maximum detected plasma concentration
Method: H9c2 cardiomyocytes obtained from Cell Bank of the Chinese Academy of Sciences (Shanghai, China) were cultured in DMEM (high glucose) supplemented with 1% P/S and 15% FBS in 5% CO2 at 37°C. The cells were collected with 0.25% trypsin, followed by re-seeding in 96-well multiplates with a density of 5×10^3 cells per well. The cell experiments were grouped as follows: normal group, model group (H2O2), administration groups and positive control groups (N-Acetyl-L-cysteine, NAC). […] After that, cells were incubated with 0.5 mg/ml of MTT for 4 h under standard condition, followed by addition of 150 µl DMSO into every well. The cell supernatants were finally removed and the optical density (OD) was recorded at 570 nm using a microplate reader (Thermo Fisher Scientific, United States). The protection rate of the compounds on H9c2 cardiomyocytes was calculated as (OD valueadministration group (or NAC group)-OD valuemodel group)/(OD valuenormal group-OD valuemodel group) ×100%.

[5] = 1 h after administration (2 ml/kg of SI), preliminary test

C[C@@H]1O[C@@H](OC[C@H]2O[C@@H](Oc3c(-c4ccc(O)c(O)c4)oc4cc(O)cc(O)c4c3=O)[C@H](O)[C@@H](O)[C@@H]2O)[C@H](O)[C@H](O)[C@H]1O [RU, rutin]
10h in auto-sampler vials RE ([1]; spiked 40 ng/mL): 6.25% | 10h in auto-sampler vials RE ([1]; spiked 1000 ng/mL): 2.90% | 10h in auto-sampler vials RE ([1]; spiked 10000 ng/mL): -5.96% | 6h at room temperature RE ([1]; spiked 40 ng/mL): -4.00% | Freeze-thaw stability (three cycles) RE ([1]; spiked 40 ng/mL): -4.50% | Long-term stability (-80℃,15 days) RE ([1]; spiked 40 ng/mL): 7.00% | 6h at room temperature RE ([1]; spiked 1000 ng/mL): -2.48% | Freeze-thaw stability (three cycles) RE ([1]; spiked 1000 ng/mL): -3.06% | Long-term stability (-80℃,15 days) RE ([1]; spiked 1000 ng/mL): 3.36% | 6h at room temperature RE ([1]; spiked 10000 ng/mL): -3.71% | Freeze-thaw stability (three cycles) RE ([1]; spiked 10000 ng/mL): 0.09% | Long-term stability (-80℃,15 days) RE ([1]; spiked 10000 ng/mL): -2.80% | Stability RSD [2]: 2.31% | detection in rat plasma [3, 5]: can be detected | detection in rat plasma ([3]; behind 15 min after i.v. low dose administration (1 ml/kg of SI)): can’t be detected | AUC(0-inf) ([3]; 4 ml/kg): 15.1 ± 2.23 ng·h/mL | AUC(0-t) ([3]; 4 ml/kg): 12.4 ± 1.37 ng·h/mL | Cmax ([3]; 4 ml/kg): 39.3 ± 1.53 ng/mL | MRT inf ([3]; 4 ml/kg): 21.6 ± 3.6 min | MRT last ([3]; 4 ml/kg): 13.2 ± 1.8 min | Vd ([3]; 4 ml/kg): 0.3 ± 0.02 L/kg | clearance ([3]; 4 ml/kg): 14.3 mL/min/kg | half-life ([3]; 4 ml/kg): 14.4 ± 2.4 min | detected mean maximum plasma concentration ([3]; rats, after administration of 4 ml/kg of SI): 0.039 μg/mL and 0.06 μM | protection ([4]; 0.06 μM): absence of protection

O=C(O)/C=C/c1ccc(O)cc1 [p-CA, p-coumaric acid]
10h in auto-sampler vials RE ([1]; spiked 150 ng/mL): -6.50% | 10h in auto-sampler vials RE ([1]; spiked 400 ng/mL): 0.06% | 10h in auto-sampler vials RE ([1]; spiked 10000 ng/mL): -4.10% | 6h at room temperature RE ([1]; spiked 150 ng/mL): -2.67% | Freeze-thaw stability (three cycles) RE ([1]; spiked 150 ng/mL): 0.13% | Long-term stability (-80℃,15 days) RE ([1]; spiked 150 ng/mL): -0.13% | 6h at room temperature RE ([1]; spiked 400 ng/mL): -2.50% | Freeze-thaw stability (three cycles) RE ([1]; spiked 400 ng/mL): 3.70% | Long-term stability (-80℃,15 days) RE ([1]; spiked 400 ng/mL): 1.40% | 6h at room temperature RE ([1]; spiked 10000 ng/mL): -2.72% | Freeze-thaw stability (three cycles) RE ([1]; spiked 10000 ng/mL): -1.55% | Long-term stability (-80℃,15 days) RE ([1]; spiked 10000 ng/mL): 6.82% | Stability RSD [2]: 3.29% | detection in rat plasma [3, 5]: can be detected | AUC(0-inf) ([3]; 1 ml/kg): 67.7 ± 57.2 ng·h/mL | AUC(0-t) ([3]; 1 ml/kg): 62.5 ± 50 ng·h/mL | Cmax ([3]; 1 ml/kg): 305 ± 147 ng/mL | MRT inf ([3]; 1 ml/kg): 7.2 ± 4.2 min | MRT last ([3]; 1 ml/kg): 6 ± 3 min | Vd ([3]; 1 ml/kg): 0.11 ± 0.03 L/kg | clearance ([3]; 1 ml/kg): 20.2 mL/min/kg | half-life ([3]; 1 ml/kg): 4.8 ± 3 min | AUC(0-inf) ([3]; 2 ml/kg): 277 ± 84 ng·h/mL | AUC(0-t) ([3]; 2 ml/kg): 265 ± 89.7 ng·h/mL | Cmax ([3]; 2 ml/kg): 715 ± 85.8 ng/mL | MRT inf ([3]; 2 ml/kg): 19.8 ± 0.6 min | MRT last ([3]; 2 ml/kg): 16.2 ± 1.8 min | Vd ([3]; 2 ml/kg): 0.13 ± 0.07 L/kg | clearance ([3]; 2 ml/kg): 6.67 mL/min/kg | half-life ([3]; 2 ml/kg): 13.2 ± 3.6 min | AUC(0-inf) ([3]; 4 ml/kg): 469 ± 38.1 ng·h/mL | AUC(0-t) ([3]; 4 ml/kg): 433 ± 44.5 ng·h/mL | Cmax ([3]; 4 ml/kg): 1260 ng/mL | MRT inf ([3]; 4 ml/kg): 19.2 ± 2.4 min | MRT last ([3]; 4 ml/kg): 15 ± 2.4 min | Vd ([3]; 4 ml/kg): 0.14 ± 0.03 L/kg | clearance ([3]; 4 ml/kg): 7.5 mL/min/kg | half-life ([3]; 4 ml/kg): 12.6 ± 3 min | protection ([4]; 8.5 μM): absence of protection
